Measurements taken from PMC12446003, “Pharmacological characterization of linaprazan glurate (X842), a novel potassium-competitive acid blocker, in vitro and in vivo” (Frontiers in Pharmacology, 2025).
Read-outs that look alike come from different tables or passages of the source.

Legend:
[1] = Pharmacokinetic assessment of X842 in rats (IV, single oral, repeated oral); assay type: in vivo, Sprague-Dawley rats; details: for Cmax / AUC(0-t) / half-life: Sprague-Dawley, rat, plasma; for AUC(0-t): read-out: AUC(0–24h)
Protocol: Male and female Sprague-Dawley rats weighing approximately 150 g were housed individually with a 12-h light/dark cycle. Food and water were provided ad libitum, except during overnight fasting (10–16 h) prior to oral drug administration, as described previously ([Kotegawa et al., 1998]; [Kotegawa et al., 2002]). To investigate the absorption kinetics of X842 (prodrug) and linaprazan (metabolite, parent drug) in rats after oral and intravenous administration of X842, X842 were dissolved in 5% Solutol HS15/45% ethanol/10% PEG400/40% saline, and methane sulfonic acid was used to adjust to pH 3, yielding solutions with concentrations of 0.6 mg/mL, 2.4 mg/mL, and 9.6 mg/mL for oral administration. For intravenous (IV) injection, a drug solution (0.6 mg/mL) was prepared and filtered through a 0.22-μm filter. Blood samples were collected via the jugular vein of conscious rats (without intubation, narcotics, or antibiotics) prior to dosing and at 0.083, 0.25, 0.5, 1, 2, 4, 6, 8, and 24 h after dosing. Blood samples were placed into tubes containing sodium heparin and centrifuged at 3,500 rpm for 10 min at 4 °C. Following centrifugation, the plasma was transferred to clean tubes and stored at −80 °C until further analysis. All animals were euthanized by carbon dioxide (CO2) inhalation after the final blood sample collection.
(§1) Pharmacokinetic assessments were conducted by Shanghai Medicilon Inc. Using C18 solid-phase extraction (Shimadzu UFLC-20A, ACE 3, C18, 3.0 µm, 150 × 4.6 mm; Shimadzu, Japan) with the following conditions: mobile phase A: 1 M ammonium acetate in water, mobile phase B: 100% acetonitrile; gradient 0–5 min: 100% A, 5–30 min: 85% A, 35–63 min: 75% A, 63–65 min: 55% A, 65–70 min: 0% A, 72–87 min: 100% A; flow rate 0.7 mL/min; column temperature 30 °C ([Weidof and Covey, 1992]). […] Bioavailability was calculated as F (%) = (Doseiv × AUCpo(0–24h)) ÷ (Dosepo × AUCiv (0–24h)) × 100%, where “po” represents oral administration and “iv” represents intravenous administration.

[2] = Pharmacokinetic assessment of X842 in dogs (IV, single oral, repeated oral); assay type: in vivo; details: beagle, dog, plasma; for half-life at 1 day: read-out: t1/2 Day 1 (converted); for half-life at 7 day: read-out: t1/2 Day 7 (converted)
Protocol: as §1
Male and female Beagle dogs weighing around 9 kg were arbitrarily selected for testing. Food and water were provided ad libitum, except during overnight fasting (15–16 h) prior to oral drug administration ([Adebowale et al., 2002]). X842 were dissolved in the PEG400/ethanol/Solutol/water mixture (40:10:5:45% v/v) and methane sulfonic acid was used to adjust to pH 3, yielding solutions with concentrations of 0.3 mg/mL, 1.2 mg/mL, and 4.8 mg/mL for oral administration. There were four rounds of drug administration. One week was required between the rounds of testing according to the conditions for of animal welfare maintenance. For IV injection, a drug solution with a concentration of 0.3 mg/mL was prepared and filtered through a 0.22-μm filter. Blood samples were collected via the jugular vein using the same procedures as were used for the rat experiments. Following centrifugation, the plasma was transferred to clean tubes and stored at −80 °C until further analysis. All animals were euthanized by phenobarbital injection after the final blood sample collection. Pharmacokinetic assessments were conducted as described in 2.2.1.

[3] = female, iv, 0.6 mg/kg, female rats, intravenous X842, plasma analyte as labelled
[4] = female, po, 0.6 mg/kg, female rats, single oral X842 0.6 mg/kg, analyte as labelled
[5] = female, po, 2.4 mg/kg, female rats, single oral X842 2.4 mg/kg, analyte as labelled
[6] = female, po, 2.4 mg/kg, female rats, single oral X842, 2.4 mg/kg (third dose group)
[7] = male, iv, 0.6 mg/kg, male rats, intravenous X842, plasma analyte as labelled
[8] = male, po, 0.6 mg/kg, male rats, single oral X842 0.6 mg/kg, analyte as labelled
[9] = male, po, 2.4 mg/kg, male rats, single oral X842 2.4 mg/kg, analyte as labelled
[10] = male, po, 2.4 mg/kg, male rats, single oral X842, 2.4 mg/kg (third dose group)
[11] = 1.2 mg/kg, female dogs, repeat oral X842, Day 1, analyte as labelled
[12] = 1.2 mg/kg, female dogs, repeat oral X842, Day 7, analyte as labelled

## Cc1cccc(C)c1CNc1cc(C(=O)NCCOC(=O)CCCC(=O)O)cn2c(C)c(C)nc12 [X842, linaprazan glurate]
[1]; [3]
  Cmax: 606 ± 284 ng/mL
  AUC(0-t): 218 ± 101 ng·h/mL
[1]; female, iv, 0.6 mg/kg, female rats, intravenous X842, plasma analyte as labelled, read-out: t1/2 (converted)
  half-life: 0.4 ± 0.03 h
[1]; [4]
  Cmax: 8.7 ± 4.9 ng/mL
  AUC(0-t): 13.8 ± 13.1 ng·h/mL
[1]; female, po, 0.6 mg/kg, female rats, single oral X842 0.6 mg/kg, analyte as labelled, read-out: t1/2 (converted)
  half-life: 2.8 h
[1]; [5]
  Cmax: 42.6 ± 17.4 ng/mL
  AUC(0-t): 85.6 ± 45.6 ng·h/mL
[1]; female, po, 2.4 mg/kg, female rats, single oral X842 2.4 mg/kg, analyte as labelled, read-out: t1/2 (converted)
  half-life: 4.1 ± 1.2 h
[1]; [6]
  Cmax: 164 ± 124 ng/mL
  AUC(0-t): 310 ± 256 ng·h/mL
[1]; female, po, 2.4 mg/kg, female rats, single oral X842, 2.4 mg/kg (third dose group), read-out: t1/2 (converted)
  half-life: 2.1 ± 0.3 h
[1]; female, po, female rats, single-dose oral administration, read-out: t1/2 (range over doses)
  half-life: 2.1 to 4.1 h
[1]; [7]
  Cmax: 448 ± 120 ng/mL
  AUC(0-t): 146 ± 38 ng·h/mL
[1]; male, iv, 0.6 mg/kg, male rats, intravenous X842, plasma analyte as labelled (prodrug X842 / parent linaprazan), read-out: t1/2 (converted)
  half-life: 0.4 ± 0.1 h
[1]; [8]
  Cmax: 2.5 ± 1.8 ng/mL
  AUC(0-t): 2.5 ± 2.6 ng·h/mL
[1]; [9]
  Cmax: 14.6 ± 10.1 ng/mL
  AUC(0-t): 18.3 ± 10 ng·h/mL
[1]; male, po, 2.4 mg/kg, male rats, single oral X842 2.4 mg/kg, analyte as labelled, read-out: t1/2 (converted)
  half-life: 2.6 h
[1]; [10]
  Cmax: 49.7 ± 35.4 ng/mL
  AUC(0-t): 11.6 ± 77.5 ng·h/mL
[1]; male, po, 2.4 mg/kg, male rats, single oral X842, 2.4 mg/kg (third dose group), read-out: t1/2 (converted)
  half-life: 2.01 ± 0.18 h
[1]; male, po, male rats, single-dose oral administration, read-out: t1/2 (range over doses)
  half-life: 2 to 2.7 h
[1]; within 0.5 h after IV administration, male and female rats
  Plasma concentration after IV administration: barely detectable
[2]; [11]
  Cmax at 1 day: 138 ± 7.6 ng/mL
  half-life at 1 day: 1.1 ± 0.2 h
[2]; [12]
  Cmax at 7 day: 47.2 ± 10.6 ng/mL
  half-life at 7 day: 2 ± 1.2 h
[2]; 1.2 mg/kg, male dogs, 7 days of repeat oral X842, Day 1, analyte as labelled
  half-life at 1 day: 2.01 ± 0.73 h
[2]; 1.2 mg/kg, male dogs, 7 days of repeat oral X842, Day 7, analyte as labelled
  half-life at 7 day: 8.6 ± 10.8 h
[2]; 1.2 mg/kg, male dogs, repeat oral X842, Day 1, analyte as labelled
  Cmax at 1 day: 26.3 ± 21.6 ng/mL
[2]; 1.2 mg/kg, male dogs, repeat oral X842, Day 7, analyte as labelled
  Cmax at 7 day: 15.6 ± 10.4 ng/mL
[2]; female dogs, intravenous X842 0.3 mg/kg, analyte as labelled
  Cmax: 694 ± 225 ng/mL
[2]; female dogs, intravenous X842 0.3 mg/kg, analyte as labelled, read-out: t1/2 (converted)
  half-life: 0.7 ± 0.1 h
[2]; female dogs, single oral X842 0.3 mg/kg, analyte as labelled
  Cmax: 6.1 ng/mL
[2]; female dogs, single oral X842 1.2 mg/kg, analyte as labelled
  Cmax: 37.5 ± 7.6 ng/mL
[2]; female dogs, single oral X842 1.2 mg/kg, analyte as labelled, read-out: t1/2 (converted)
  half-life: 1.2 ± 0.2 h
[2]; female dogs, single oral X842 4.8 mg/kg, analyte as labelled
  Cmax: 271 ng/mL
[2]; female dogs, single oral X842 4.8 mg/kg, analyte as labelled, read-out: t1/2 (converted)
  half-life: 2.7 ± 2.2 h
[2]; female dogs, single oral dose, read-out: t1/2 (range over doses)
  half-life: 2.1 to 3.2 h
[2]; male dogs, intravenous X842 0.3 mg/kg, analyte as labelled
  Cmax: 745 ± 157 ng/mL
[2]; male dogs, intravenous X842 0.3 mg/kg, analyte as labelled, read-out: t1/2 (converted)
  half-life: 0.5 ± 0.1 h
[2]; male dogs, single oral X842 0.3 mg/kg, analyte as labelled
  Cmax: 5.3 ± 4 ng/mL
[2]; male dogs, single oral X842 1.2 mg/kg, analyte as labelled
  Cmax: 26.3 ng/mL
[2]; male dogs, single oral X842 1.2 mg/kg, analyte as labelled, read-out: t1/2 (converted)
  half-life: 2 ± 0.7 h
[2]; male dogs, single oral X842 4.8 mg/kg, analyte as labelled
  Cmax: 355 ng/mL
[2]; male dogs, single oral X842 4.8 mg/kg, analyte as labelled, read-out: t1/2 (converted)
  half-life: 3.4 ± 2.2 h
[2]; male dogs, single oral dose, read-out: t1/2 (range over doses)
  half-life: 2 to 3.4 h
[2]; both sexes, 0.3 mg/kg, dogs, IV administration, similar between the sexes, read-out: t1/2 (converted)
  half-life: ~0.6 h
[2]; female, iv, 0.3 mg/kg, female dogs, intravenous X842 0.3 mg/kg, analyte as labelled, read-out: AUC(0-24h)
  AUC(0-t): 343 ± 125 ng·h/mL
[2]; female, po, 0.3 mg/kg, female dogs, single oral X842 0.3 mg/kg, analyte as labelled, read-out: AUC(0-24h)
  AUC(0-t): 5.1 ± 3.3 ng·h/mL
[2]; female, po, 1.2 mg/kg, female dogs, repeat oral X842, Day 1, analyte as labelled, read-out: AUC(0-24h) Day 1
  AUC(0-t): 72.3 ± 18.3 ng·h/mL
[2]; female, po, 1.2 mg/kg, female dogs, repeat oral X842, Day 7, analyte as labelled, read-out: AUC(0-24h) Day 7
  AUC(0-t): 69.4 ± 54.1 ng·h/mL
[2]; female, po, 1.2 mg/kg, female dogs, single oral X842 1.2 mg/kg, analyte as labelled, read-out: AUC(0-24h)
  AUC(0-t): 72.3 ng·h/mL
[2]; female, po, 4.8 mg/kg, female dogs, single oral X842 4.8 mg/kg, analyte as labelled, read-out: AUC(0-24h)
  AUC(0-t): 504 ng·h/mL
[2]; male, iv, 0.3 mg/kg, male dogs, intravenous X842 0.3 mg/kg, analyte as labelled, read-out: AUC(0-24h)
  AUC(0-t): 361 ± 118 ng·h/mL
[2]; male, po, 0.3 mg/kg, male dogs, single oral X842 0.3 mg/kg, analyte as labelled, read-out: AUC(0-24h)
  AUC(0-t): 5.2 ± 2.3 ng·h/mL
[2]; male, po, 1.2 mg/kg, male dogs, repeat oral X842, Day 1, analyte as labelled, read-out: AUC(0-24h) Day 1
  AUC(0-t): 65.1 ± 51.2 ng·h/mL
[2]; male, po, 1.2 mg/kg, male dogs, repeat oral X842, Day 7, analyte as labelled, read-out: AUC(0-24h) Day 7
  AUC(0-t): 35.4 ± 8.7 ng·h/mL
[2]; male, po, 1.2 mg/kg, male dogs, single oral X842 1.2 mg/kg, analyte as labelled, read-out: AUC(0-24h)
  AUC(0-t): 65.1 ng·h/mL
[2]; male, po, 4.8 mg/kg, male dogs, single oral X842 4.8 mg/kg, analyte as labelled, read-out: AUC(0-24h)
  AUC(0-t): 889 ng·h/mL
